Assay: 4-MU partitioning assay, backward transfer partitioning (backward extraction; BE), effect of aqueous phase surfactants on 4-MU containment
Assay type: physicochemical
Conditions: surfactant at 1.5 times its CMC; oil phase 5 cSt silicone oil with 0.1% w/v Triton X-15; lower signal = better 4-MU retention
Description: The efficacy of different surfactants (detergents) in containing 4-MU (or derivatives) within an aqueous phase may, for example, be evaluated using a partitioning assay. Parameters that may be varied in the assay for evaluation of surfactants in aqueous containment of 4-MU (or derivatives) include, but are not limited to, the pH of the aqueous phase solution, and the critical micelle concentration of the surfactant.
The assay format includes forward transfer partitioning (forward extraction; FE) of 4-MU from an aqueous phase to an oil phase and backward transfer partitioning (backward extraction; BE) of 4-MU from an oil phase to an aqueous phase. The assay is performed in 96-well microtiter substrates; clear 96-well substrates (e.g., Costar 3631) for evaluation of forward transfer partitioning with bottom probe fluorescence detection and solid black 96-well substrates (e.g., Costar 3915) for evaluation of backward transfer partitioning with top probe fluorescence detection. A BioTek Synergy HT instrument with 3 mm top probe and 5 mm bottom probe, may, for example, be used for fluorescence measurements. […]

relative fluorescence reading, backward transfer partitioning (BE) of 4-MU: 43,000-44,000 RFU
Substance: ANAPOE ®-20 (Tween ® 20) [AS17]

Source: patent US9513253B2, “Droplet actuators and techniques for droplet-based enzymatic assays” (Advanced Liquid Logic, Inc., priority 2011, dated 2016)
